These results are taken from publication PMC6155162, “Identification of mesothelioma-specific sialylated epitope recognized with monoclonal antibody SKM9-2 in a mucin-like membrane protein HEG1” (Scientific Reports, 2018).

Entries after “also recorded” stand apart in the source; their conditions may differ.

The subject of assay [1] is recombinant Agrocybe cylindracea lectin (rACG). Kind of assay: SPR lectin binding analysis of SKMepmin3: rACG. Conditions: non-treated SKMepmin3, rACG 5 µg/mL. As for the experimental part:
(§1) Figure 7 SPR analysis of bindings of lectin and SKM9-2 to glycosidase-treated SKMepmin3. Purified SKMepmin3 was incubated with α2-3 Neuraminidase S, Neuraminidase A, or Neuraminidase A + O-Glycosidase; and then was immobilized as a ligand on Ni^2+-binding sensor chip NTA. The analytes were used at a concentration of 5 µg/mL. (a) ABA, (b) Jacalin, (c) rACG, (d) SKM9-2. Glycosidase-digested sample was not tested in the experiment with rACG.
(§2) The binding of SKM9-2 or lectin to SKMepmin was measured by SPR analysis. SKMepmin was diluted with a running buffer (10 mM HEPES buffer (pH 8.1) containing 150 mM NaCl and 0.005% Tween-20), flowed on Ni^2+-binding sensor chip NTA (GE Healthcare), and affinity-bound through His-tag as a ligand on the sensor chip. Binding analysis of SKM9-2 was performed in a running buffer containing 50 µM EDTA. A non-treated flow cell was used as a reference cell. SKM9-2, anti-sialyl Lewis^X (CSLEX1, Becton, Dickinson and Company Japan, Tokyo, Japan), rACG (Wako Pure Chemical Industries), biotinylated ABA (J-Oil Mills, Inc., Tokyo, Japan), or biotinylated Jacalin (Vector Laboratories, Inc., Burlingame, CA, USA) (each 5 µg/mL) was injected as an analyte with the running buffer. As a regeneration buffer, 350 mM EDTA was used. The dissociation constant was calculated using the manufacturer’s instructions.

The test system of assay [2] is anti-sialyl Lewis^X (CSLEX1). Kind of assay: SPR analysis of binding of anti-sialyl LewisX to SKMepmin3. Conditions: purified SKMepmin3 on sensor chip NTA, analyte 5 µg/mL. As for the experimental part:
as §2
Supplementary Fig. S2. SPR analysis of binding of anti-sialyl LewisX to SKMepmin3.
Purified SKMepmin3 was immobilized as a ligand on Ni2+-binding sensor chip NTA. The analytes
were used at the concentration of 5 µg/mL.
(SPR reads the build-up and loss of mass on a sensor chip optically.)

Assay [3] deals with Agaricus bisporus agglutinin (ABA). Kind of assay: SPR lectin binding analysis of glycosidase-treated SKMepmin3: ABA. Conditions: ABA 5 µg/mL. As for the experimental part:
as §1
(§3) Cell lysate or SKMepmin3 was treated with α2-3 Neuraminidase S, α2-3, 6, 8, 9 Neuraminidase A, and O-Glycosidase (New England Biolabs Japan, Tokyo, Japan) in 50 mM sodium phosphate (pH 7.5) containing 1% Nonidet P-40, according to the manufacturer’s instructions. The cell lysate sample was resolved by 4–15% or 6% SDS-PAGE under reducing conditions and detected by western blotting using SKM9-2. The analysis of the SKMepmin3 sample was performed by SPR.
as §2

Another assay relates to Jacalin. Kind of assay: SPR lectin binding analysis of glycosidase-treated SKMepmin3: Jacalin. As for the experimental part: as §1, §3, §2
For assay [4], the target named is SKM9-2. The assay is described as follows: SPR analysis of binding between SKM9-2 and soluble His-tagged minimum epitope peptides (SKMepmin). As for the experimental part:
Figure 5 SPR analysis of the binding kinetics between SKM9-2 and mutants of minimum epitope. A soluble His-tagged mutant of minimum epitope (SKMepmin) was secreted from transfected HEK293T and immobilized as a ligand on the Ni^2+-binding sensor chip NTA. The upper sensorgrams show the binding kinetics of analyte (5 µg/mL of SKM9-2) to SKMepmins. The control without any peptide is shown as “No peptide” and the negative control peptide cycle is shown as “Control peptide”. The glycan-digested SKMepmin3 that was treated with Neuraminidase A and O-Glycosidase was used as the negative control peptide. The dissociation constant in the lower bar graph was calculated using the manufacturer’s instructions. RU, response units; Signal sequence, the artificial signal sequence (MAPLLLLLLPLLLLPPAAP).
as §1, §3, §2

Assay [5] concerns SKM9-2. The assay is described as follows: Deglycosylation analysis: western blotting using SKM9-2 of neuraminidase-treated cell lysates. Type of assay: binding. Conditions: full-length HEG1, lysates of ACC-MESO4 (native) or HEG1-transfected HEK293T, 6% SDS-PAGE.
Description: Figure 8 SKM9-2 epitope produced from mesothelioma cells. (a) Chromatogram of SKMepmin3 separation using anion exchange column. SKMepmin3 produced from HEK293T (blue line) or ACC-MESO4 (pink line) was affinity-purified using SKM9-2-immobilized resins and separated by Mini Q 4.6/50 PE. A major peak of SKMepmin3 purified from HEK293T contained two disialyl T antigens (Fig. 6). (b) Western blotting for epitope-fused GPI-anchor protein (7.6231) treated with neuraminidases. Cell lysate of 7.6231-transfected ACC-MESO1 (top panel), ACC-MESO4 (middle panel), or HEK293T (lower panel) was treated with α2-3 Neuraminidase S or Neuraminidase A, resolved by 4–15% SDS-PAGE, and analyzed by western blotting using SKM9-2. (c) Western blotting for full-length HEG1 treated with neuraminidases. Cell lysates of ACC-MESO4 (upper panel) and HEG1-transfected HEK293T (lower panel) were treated with α2-3 Neuraminidase S or Neuraminidase A and analyzed by 6% SDS-PAGE and western blotting using SKM9-2. (d) Schematic of SKM9-2 epitope. Full-length blots are presented in Supplementary Fig. S10.
Monolayer cells were solubilized with 20 mM Tris buffer (pH 8.0) containing 1% SDS, 1 mM phenylmethylsulfonyl fluoride, 125 mU/mL Benzonase Nuclease (Merck Millipore Co., Tokyo, Japan) (25 µL/cm^2 culture surface area). The lysate (10 µL/lane) was resolved by SDS-PAGE under reducing conditions using 6% polyacrylamide gels or 4–15% precast gels (Bio-Rad Laboratories Inc., Hercules, CA, USA). Then it was transferred to a polyvinylidene difluoride membrane (Immobilon-P; Merck Millipore Co.) by semi-dry blotting in a buffer containing 25 mM Tris, 192 mM glycine, 0.1% SDS, and 20% methanol. The membrane was blocked with 5% non-fat milk in 20 mM Tris-buffered saline (pH 7.2) containing 0.1% Tween 20 and reacted with 1 µg/mL of mAb SKM9-2 or anti-FLAG (Anti-DYKDDDDK tag mAb; 1E6, Wako Pure Chemical Industries, Osaka, Japan). After washing, it was treated with horseradish peroxidase-conjugated goat anti-mouse IgG (Jackson ImmunoResearch, West Grove, PA, USA), and developed with Amersham ECL select (GE Healthcare, Buckinghamshire, UK). Although glycan in non-fat milk often interferes the glycan-dependent binding of an antibody, the SKM9-2 binding was not affected by the blocking using non-fat milk, in comparison with 5% bovine serum albumin (Supplementary Fig. S6).
as §3

By Kd is commonly meant a measure of binding affinity in units of concentration. As for “MAPLLLLLLPLLLLPPAAPGGSKAPSLVSLPAGGDYKDDDDKHHHHHHHH [SKMepmin3, minimum glycosylation peptide 893-…-903 -FLAG-Hisx8 with two disialyl T at Ser893 and Ser900]”, the rACG binding result in assay [1] is recorded as “interacted”. Also, the “anti-sialyl Lewis^X antibody binding” value in assay [2] is “did not bind; also recorded: not bound”. For the same molecule, the ABA binding result is recorded as “lost” in assay [3] (SKMepmin3 deglycosylated with O-Glycosidase and Neuraminidase A); “enhanced” in assay [3] (SKMepmin3 desialylated with Neuraminidase A); “bound” in assay [3] (non-treated SKMepmin3 as ligand). Further, the Jacalin binding result in the assay with Jacalin (SKMepmin3 desialylated with Neuraminidase A, Jacalin 5 µg/mL) is “recognized”; in the assay on Jacalin (deglycosylated SKMepmin3 (Neuraminidase A + O-Glycosidase), Jacalin 5 µg/mL), “not”; in the assay on Jacalin (non-treated SKMepmin3, Jacalin 5 µg/mL), “did not bind”. Further, the equilibrium dissociation constant (Kd) on SKM9-2 [4] (His-tagged SKMepmin secreted from transfected HEK293T immobilized on Ni2+-binding sensor chip NTA, analyte 5 µg/mL SKM9-2, running buffer 10 mM HEPES pH 8.1, 150 mM NaCl, 0.005% Tween-20, 50 µM EDTA, read-out: KD (M), dissociation constant) stood at 2.82e-09 M. For the same molecule, in the assay with SKM9-2 [4] (SKMepmin3 desialylated with Neuraminidase A, SKM9-2 5 µg/mL), the “persistent binding of SKM9-2” value is recorded as “lost”. For the same molecule, the SKM9-2 binding entry in the assay with SKM9-2 [4] (SKMepmin3 treated with α2–3 Neuraminidase S, SKM9-2 5 µg/mL) was “weakened”. In the assay on SKM9-2 [4] (analyte 5 µg/mL SKM9-2, change caused by the substitution), the “association rate between SKM9-2 and epitope peptide (in words)” value is given as “increased”. For the same molecule, the “interaction between SKM9-2 and SKMepmin3” value with SKM9-2 [4] (complete digest of glycan using O-Glycosidase (with Neuraminidase A), SKM9-2 5 µg/mL) is “eliminated”.

B1: recombinant HEG1: full-length recombinant HEG1 (1-1481) expressed in HEK293T (protein, UniProt Q9ULI3 1-1381, looked up)
chain: MASPRASRWPPPLLLLLLPLLLLPPAAPGTRDPPPSPARRALSLAPLAGAGLELQLERRPEREPPPTPPRERRGPATPGPSYRAPEPGAATQRGPSGRAPRGGSADAAWKHWPESNTEAHVENITFYQNQEDFSTVSSKEGVMVQTSGKSHAASDAPENLTLLAETADARGRSGSSSRTNFTILPVGYSLEIATALTSQSGNLASESLHLPSSSSEFDERIAAFQTKSGTASEMGTERAMGLSEEWTVHSQEATTSAWSPSFLPALEMGELTTPSRKRNSSGPDLSWLHFYRTAASSPLLDLSSSSESTEKLNNSTGLQSSSVSQTKTMHVATVFTDGGPRTLRSLTVSLGPVSKTEGFPKDSRIATTSSSVLLSPSAVESRRNSRVTGNPGDEEFIEPSTENEFGLTSLRWQNDSPTFGEHQLASSSEVQNGSPMSQTETVSRSVAPMRGGEITAHWLLTNSTTSADVTGSSASYPEGVNASVLTQFSDSTVQSGGSHTALGDRSYSESSSTSSSESLNSSAPRGERSIAGISYGQVRGTAIEQRTSSDHTDHTYLSSTFTKGERALLSITDNSSSSDIVESSTSYIKISNSSHSEYSSFFHAQTERSNISSYDGEYAQPSTESPVLHTSNLPSYTPTINMPNTSVVLDTDAEFVSDSSSSSSSSSSSSSSGPPLPLPSVSQSHHLFSSILPSTRASVHLLKSTSDASTPWSSSPSPLPVSLTTSTSAPLSVSQTTLPQSSSTPVLPRARETPVTSFQTSTMTSFMTMLHSSQTADLKSQSTPHQEKVITESKSPSLVSLPTESTKAVTTNSPLPPSLTESSTEQTLPATSTNLAQMSPTFTTTILKTSQPLMTTPGTLSSTASLVTGPIAVQTTAGKQLSLTHPEILVPQISTEGGISTERNRVIVDATTGLIPLTSVPTSAKEMTTKLGVTAEYSPASRSLGTSPSPQTTVVSTAEDLAPKSATFAVQSSTQSPTTVSSSASVNSCAVNPCLHNGECVADNTSRGYHCRCPPSWQGDDCSVDVNECLSNPCPSTAMCNNTQGSFICKCPVGYQLEKGICNLVRTFVTEFKLKRTFLNTTVEKHSDLQEVENEITKTLNMCFSALPSYIRSTVHASRESNAVVISLQTTFSLASNVTLFDLADRMQKCVNSCKSSAEVCQLLGSQRRIFRAGSLCKRKSPECDKDTSICTDLDGVALCQCKSGYFQFNKMDHSCRACEDGYRLENETCMSCPFGLGGLNCGNPYQLITVVIAAAGGGLLLILGIALIVTCCRKNKNDISKLIFKSGDFQMSPYAEYPKNPRSQEWGREAIEMHENGSTKNLLQMTDVYYSPTSVRNPELERNGLYPAYTGLPGSRHSCIFPGQYNPSFISDESRRRDYF
modifications: full-length FLAG tag
notes: full-length recombinant HEG1 (1-1481) expressed in HEK293T
For the molecule B1, the “SKM9-2 binding (western blot)” value with SKM9-2 [5] (Neuraminidase A) is “lost”; with SKM9-2 [5] (α2–3 Neuraminidase S), “weakened”.
